We go through four compounds from paper PMC10382351, “In vivo evaluation of a novel ^18F-labeled PET radioligand for translocator protein 18 kDa (TSPO) in monkey brain” (European Journal of Nuclear Medicine and Molecular Imaging, 2023).

Series [1] concerns 18 kDa translocator protein (TSPO). As to the kind of experiment: PET imaging of [^18F]SF51 in rhesus monkey brain with kinetic analysis (2TCM, Logan plot, Lassen plot). The series is classed as in vivo. Conditions: radioligand [^18F]SF51. As to the method:
Electrocardiogram, body temperature, heart rate, and respiratory rate measures were monitored throughout the scan.
Brain PET imaging was performed using a microPET Focus 220 camera (Siemens Medical Solution; Knoxville, TN). […] For baseline experiments, 20 mL of a vehicle containing 20% (2-hydroxypropyl)-β-cyclodextrin and two equivalents of HCl were injected intravenously 10 min before radioligand administration. For the blocked experiment, PK11195 was dissolved in vehicle and then injected intravenously (5 mg/kg) 10 min before radioligand injection for all three monkeys. One of the three monkeys underwent an additional blocked scan with 5 mg/kg of PBR28, performed using a MultiScan™ LFER 150 PET/CT (Mediso USA, LLC; Arlington, VA). The interval between baseline and blocked imaging sessions was at least three weeks in order to allow the monkey to recover from arterial blood sampling. Focus 220 PET images were histogrammed into 30 time frames (6 × 30, 3 × 60, 2 × 120, 4 × 300, and 15 × 600 s) and reconstructed using Fourier rebinning plus a two-dimensional filtered back-projection with scatter and attenuation correction. MultiScan LFER PET images were reconstructed with 3D-OSEM with two iterations and nine subsets and were corrected for scatter and attenuation.
PET images were co-registered to a standardized monkey MRI template using PMOD software (PMOD version 4.1, PMOD Technologies Ltd.; Zurich, Switzerland). Thirty-three predefined regions of interest (ROIs) from a monkey brain template were applied to the co-registered PET images to obtain regional time-activity curves (Supplementary Table S2). Brain uptake was expressed as standardized uptake value (SUV), which normalizes for injected radioactivity and body weight. Using the brain time-activity curves and the radiometabolite-corrected arterial input function, the total VT was derived from a two-tissue compartment model (2TCM). Receptor occupancy by PK11195 and nondisplaceable distribution volume (VND/fP) of [^18F]SF51 were determined by an axes-transformed Lassen plot, where the y-axis reports the difference in VT between the baseline and the blocked scans, corrected by the respective fp values, and the x-axis reports the values at baseline (VTbase/fPbase).

Series [2] concerns TSPO. The following applies: cited from earlier work; for BPND of whole brain: monkey brain.
Series [3] has as its target TSPO. The arrangement: method as in PMID 25123416, PMID 34756026. The following applies: human brain homogenates; against [^3H]PK11195; cited from earlier work.

Turning to `CCC(C)N(C)C(=O)c1cc2ccccc2c(-c2ccccc2Cl)n1` (stereo not drawn) [PK11195, reference compound], in series [1] (PK11195 5 mg/kg i.v., three rhesus monkeys), the “Receptor occupancy (Lassen plot)” value turned out to be 102 ± 3%. In series [1] (PK11195 5 mg/kg, mean ± SD, n = 3), the “Slope of Lassen plot (= occupancy)” value was found to be 1.02 ± 0.03. Take `CC[C@@H](C)N(C)C(=O)c1nc(-c2ccccc2Cl)c2ccccc2n1` [ER176]: the “BPND of whole brain” value with TSPO [2] is 8.9. Besides, the “Ki ratio between LAB and HAB” value on TSPO [3] was 1.28.

As for `CC[C@@H](C)N([11CH3])C(=O)c1nc(-c2cccc(F)c2)c2ccccc2n1` [[^11C]SF51], the “BPND of whole brain” value with TSPO [2] is 8.1. As to `CC[C@@H](C)N([11CH3])C(=O)c1nc(-c2ccccc2Cl)c2ccccc2n1` [[^11C]ER176], the “VT/fP in the whole brain” value with TSPO [2] (monkey) is 186 mL·cm^−3.
